Test systems include ACHN renal; HCC-2998 colon; HCT-15 colon; LOX IMVI melanoma; M14 melanoma; MDA-MB-435; NCI-H460 lung; SNB-19 CNS; HS 578T breast; OVCAR-8 ovarian.
Assay in all cases: NCI-60 cell line screen, 48 h

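96-well plates; 48 h exposure; 5 concentrations. Endpoints by linear interpolation between flanking doses. Not reached: highest tested concentration assigned. GI50: concentration for 50% inhibition of growth. TGI denotes the concentration required for complete inhibition of growth.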 Bounds are passed on as bounds.

For the compound `O=C1C=Cc2c(Cl)sc(Cl)c21`, the TGI was 3.16 µM in the test with ACHN renal; 13.8 µM with HCC-2998 colon; 3.14 µM in the test on HCT-15 colon; 1.89 µM in the test with LOX IMVI melanoma; 3.99 µM with M14 melanoma; 5.31 µM with MDA-MB-435. Besides, the TGI was 45.2 µM with NCI-H460 lung and 19.8 µM in the test on SNB-19 CNS.

For `N#CCCNCCN(CCN(C(=O)Nc1ccccc1)c1ccccc1)C(=O)Nc1ccccc1`, the TGI is more than 100 µM in the test on ACHN renal; 36 µM in the test with HCC-2998 colon; more than 100 µM with HCT-15 colon; more than 100 µM in the test with HS 578T breast; more than 100 µM with LOX IMVI melanoma; 46.1 µM in the test with M14 melanoma. Also, the TGI in the test with NCI-H460 lung, in the test with OVCAR-8 ovarian and in the test with SNB-19 CNS was more than 100 µM in each case.

Regarding `Cc1c(CNc2ccc(Cl)c(C(=O)NC(CC(=O)O)C(=O)O)c2)ccc2nc(N)nc(N)c12` (stereo unspecified), the TGI in the test with ACHN renal, in the test with HCT-15 colon, in the test with HS 578T breast, with LOX IMVI melanoma, in the test on M14 melanoma and in the test on MDA-MB-435 was more than 1000 µM throughout. The values for the TGI in the test with NCI-H460 lung, in the test with OVCAR-8 ovarian and in the test with SNB-19 CNS were 323 µM, more than 1000 µM and more than 1000 µM, respectively. The GI50 in the test on SNB-19 CNS was 0.382 µM.

Consider `COc1ccc2c(c1)OCC1(O)Cc3ccccc3OC21` (stereo unspecified), for which the TGI in the test on ACHN renal, with HCC-2998 colon, in the test on HCT-15 colon, in the test on LOX IMVI melanoma, in the test with M14 melanoma and in the test on MDA-MB-435 was more than 100 µM throughout. The compound further showed a TGI in the test on OVCAR-8 ovarian of more than 100 µM.

As to `COC(=O)C1=C(C)N2CCCOC2(C)C(C(=O)OC)C1c1cccc(Cl)c1` (stereo unspecified), the TGI in the test with ACHN renal was 93.3 µM; in the test with HCC-2998 colon, more than 100 µM; in the test on M14 melanoma, 74.7 µM; in the test with NCI-H460 lung, 61.3 µM; with OVCAR-8 ovarian, 87.9 µM; with SNB-19 CNS, more than 100 µM.

Take `C[C@]12CC[C@H]3[C@@H](CCC4=CC(=O)C=C[C@@]43O)[C@@H]1CCC2=O`: the TGI in the test on ACHN renal, in the test on HCC-2998 colon, with HCT-15 colon, in the test with LOX IMVI melanoma, with M14 melanoma and in the test with MDA-MB-435 was more than 100 µM throughout. For the same compound, the TGI in the test with NCI-H460 lung, in the test on OVCAR-8 ovarian and in the test with SNB-19 CNS was more than 100 µM throughout.

For `CC(C)(C)C#C[P+](c1ccccc1)(c1ccccc1)c1ccccc1`, the TGI in the test with ACHN renal is 10.3 µM; in the test with HCC-2998 colon, 0.986 µM; with HCT-15 colon, 5.9 µM; in the test on LOX IMVI melanoma, 1.4 µM; in the test with M14 melanoma, 1.21 µM; with NCI-H460 lung it was 0.475 µM. Moreover, the TGI was found to be 1.67 µM in the test with OVCAR-8 ovarian and 1.51 µM with SNB-19 CNS.

As to `COc1c(-c2cc(C)c(Cl)c(=O)[nH]2)c(O)c(OC)c2occc12`, the TGI in the test with ACHN renal, in the test with HCC-2998 colon, in the test on HCT-15 colon, in the test on LOX IMVI melanoma, in the test with M14 melanoma and with MDA-MB-435 was more than 100 µM in each case. Moreover, the TGI in the test on NCI-H460 lung, in the test with OVCAR-8 ovarian and in the test with SNB-19 CNS was more than 100 µM each time.

For the compound `CSc1nc2ccccc2c(=O)n1/N=C1\C(=O)N(CN2CCOCC2)c2ccc(Cl)cc21`, the TGI with ACHN renal was more than 100 µM; in the test with HCT-15 colon it was more than 100 µM; in the test on HS 578T breast, more than 100 µM; with LOX IMVI melanoma, 33.3 µM; with M14 melanoma, more than 100 µM; in the test on MDA-MB-435 it was more than 100 µM. For the same compound, the TGI in the test with NCI-H460 lung was 43.4 µM; with OVCAR-8 ovarian it was more than 100 µM; in the test on SNB-19 CNS it was more than 100 µM.

Regarding `O=C1COC(c2ccccc2O)=NN1CCCN1CCCC1`, the TGI in the test on ACHN renal, in the test on HCT-15 colon, in the test with HS 578T breast, with M14 melanoma, with MDA-MB-435 and in the test with NCI-H460 lung was more than 100 µM throughout. Moreover, the TGI in the test on OVCAR-8 ovarian and in the test on SNB-19 CNS was more than 100 µM in each case.

With `CC(=O)Nc1ccc2c(C(=O)O)c(C)c(=O)[nH]c2n1`, the TGI in the test with ACHN renal, in the test on HCT-15 colon, with HS 578T breast, in the test with M14 melanoma, in the test with MDA-MB-435 and with NCI-H460 lung was more than 100 µM throughout. Further, the TGI with OVCAR-8 ovarian and in the test on SNB-19 CNS was more than 100 µM in each case.

In the case of `Nc1ccc2c(c1)C1Oc3ccccc3CC1CO2` (stereo unspecified), the TGI in the test with HCC-2998 colon was more than 100 µM; with HCT-15 colon it was 35.6 µM; in the test with LOX IMVI melanoma, more than 100 µM; with M14 melanoma, more than 100 µM; in the test on MDA-MB-435 it was more than 100 µM; with OVCAR-8 ovarian, more than 100 µM.

For `CC(C)(C)c1cc(C(O)(C(=O)O)C(=O)O)cc(C(C)(C)C)c1O`, the TGI in the test with ACHN renal, with HCT-15 colon, in the test on HS 578T breast, with LOX IMVI melanoma, with M14 melanoma and in the test on MDA-MB-435 was more than 100 µM each time. The TGI with OVCAR-8 ovarian and in the test on SNB-19 CNS was more than 100 µM in each case.

With `Cc1cc(S(=O)(=O)Nc2nc3ccsc3c(=O)n2N)c(S)cc1Cl`, the TGI in the test on ACHN renal, in the test with HCC-2998 colon, in the test on HCT-15 colon, with LOX IMVI melanoma, with M14 melanoma and with MDA-MB-435 was more than 100 µM each time. Further, the TGI with NCI-H460 lung, in the test on OVCAR-8 ovarian and in the test on SNB-19 CNS was more than 100 µM throughout.

With `CCNc1nc(N)c(C(=O)c2ccc(Cl)cc2)s1`, the TGI in the test on ACHN renal was more than 100 µM; in the test on HCT-15 colon, more than 100 µM; in the test on HS 578T breast, 36.9 µM; with LOX IMVI melanoma, more than 100 µM; in the test with M14 melanoma, more than 100 µM; with MDA-MB-435 it was more than 100 µM. For the same compound, the TGI with NCI-H460 lung is more than 100 µM; in the test on SNB-19 CNS it was 58.8 µM.

Turning to `Cc1ccc(S(=O)(=O)NC(=O)NC(Cc2c[nH]c3ccccc23)C(=O)O)cc1` (stereo unspecified), the TGI in the test on HCT-15 colon, in the test with HS 578T breast, in the test with LOX IMVI melanoma, in the test on M14 melanoma, with NCI-H460 lung and in the test on OVCAR-8 ovarian was more than 100 µM throughout. In addition, the TGI with SNB-19 CNS was more than 100 µM.

In the case of `Cc1cc2c(cc1-c1cc3c(cc1C)C(C(C)C)=C(O)C(=O)/C3=C\Nc1nc(-c3ccccc3)cs1)/C(=C/Nc1nc(-c3ccccc3)cs1)C(=O)C(O)=C2C(C)C`, the TGI with ACHN renal is 31.2 µM; in the test with HCT-15 colon, 58.4 µM; in the test on HS 578T breast it was more than 100 µM; with M14 melanoma it was 30.1 µM; in the test on MDA-MB-435, 30.6 µM; in the test on NCI-H460 lung, 46 µM. The TGI turned out to be 77 µM with OVCAR-8 ovarian and 37.9 µM in the test on SNB-19 CNS.

As to `CC(=O)Nc1ccc(S(=O)(=O)Nc2nnc(S(N)(=O)=O)s2)cc1`, the TGI in the test with ACHN renal, in the test on HCC-2998 colon, in the test on HCT-15 colon, in the test with LOX IMVI melanoma, with M14 melanoma and in the test with MDA-MB-435 was more than 100 µM each time. Also, the TGI in the test with NCI-H460 lung and with SNB-19 CNS was more than 100 µM throughout.

On to `Cc1cn(C2CC(O)C(CO)C2C)c(=O)[nH]c1=O` (stereo unspecified), for which the TGI with ACHN renal, in the test with HCC-2998 colon, in the test on HCT-15 colon, with LOX IMVI melanoma, with M14 melanoma and in the test on NCI-H460 lung was more than 100 µM each time. The TGI with OVCAR-8 ovarian and with SNB-19 CNS was more than 100 µM each time.

With `C=Nc1ccc([N+](=O)[O-])cc1`, the TGI in the test with ACHN renal, with HCC-2998 colon, in the test with HCT-15 colon, in the test with LOX IMVI melanoma, with M14 melanoma and in the test with NCI-H460 lung was more than 100 µM in each case. The TGI in the test on OVCAR-8 ovarian and in the test on SNB-19 CNS was more than 100 µM each time.

For the compound `Cc1nc2c(cc1C(=O)NN)c(=O)n(C)c(=O)n2C`, the TGI in the test with ACHN renal, in the test on HCC-2998 colon, in the test with HCT-15 colon, in the test with M14 melanoma, in the test on MDA-MB-435 and in the test with NCI-H460 lung was more than 100 µM in each case. The TGI in the test with OVCAR-8 ovarian and in the test on SNB-19 CNS was more than 100 µM in each case.

`CSC1=Nc2ccccc2-c2nc(-c3ccccc3)cc(-c3ccccc3)c2C1`: the TGI was 41.8 µM in the test on ACHN renal; more than 100 µM in the test on HCC-2998 colon; more than 100 µM with HCT-15 colon; more than 100 µM with LOX IMVI melanoma; 37.1 µM in the test on M14 melanoma; more than 100 µM in the test on MDA-MB-435. Further, the TGI with NCI-H460 lung, in the test with OVCAR-8 ovarian and in the test on SNB-19 CNS was more than 100 µM throughout.

Regarding `CCOC(=O)C1=CN=C2C(=O)N(c3ccccc3)N(C)C2(C)C1=N` (stereo unspecified), the TGI in the test on ACHN renal, with HCC-2998 colon, with HCT-15 colon, with LOX IMVI melanoma, with M14 melanoma and in the test with MDA-MB-435 was more than 100 µM each time. Moreover, the TGI in the test with NCI-H460 lung, in the test with OVCAR-8 ovarian and with SNB-19 CNS was more than 100 µM throughout.

Consider `CC1(C)CCC[C@]2(C)[C@@H]1CC[C@@]13O[C@@H]1C1=C(CO)C(=O)O[C@]14O[C@@H]4[C@@H]23`, for which the TGI is 30.2 µM with ACHN renal; 40.5 µM with HCC-2998 colon; 37.4 µM in the test on HCT-15 colon; 24 µM in the test on LOX IMVI melanoma; 23.6 µM in the test with M14 melanoma; more than 53.1 µM with MDA-MB-435. Further, the results for the TGI with NCI-H460 lung, with OVCAR-8 ovarian and in the test with SNB-19 CNS were 41 µM, 26.7 µM and 27.9 µM, respectively.

(Values after PubChem BioAssay (NCI).)
